Activity coefficient data for 25 compounds are collected here from the NIST ThermoML archive (doi:10.1016/j.fluid.2006.07.015).

The structures appear in SMILES notation. Numbers after ± are expanded uncertainties.

A short description of one series: activity coefficient (dimensionless); of the first substance listed, at infinite dilution; xn = mol fraction of the nth substance listed. Conditions: 418.15 K; 101 kPa; Liquid; Chromatography; x1 = 0.
For the compound `CCC(C)CC(C)C` (configuration not stated) [2,4-dimethylhexane] + CCCCCCCCCCCCCCCCCCC(CCCCCCCCCCCCCCCCCC)CCCCC(CCCCCCCCCCCCCCCCCC)CCCCCCCCCCCCCCCCCC, the activity coefficient was 0.398 ± 0.034.

With `CC(C)CC(C)C` [2,4-dimethylpentane] + CCCCCCCCCCCCCCCCCCC(CCCCCCCCCCCCCCCCCC)CCCCC(CCCCCCCCCCCCCCCCCC)CCCCCCCCCCCCCCCCCC, the activity coefficient was determined as 0.396 ± 0.034.

Regarding `CC#CCCC` [2-hexyne] + CCCCCCCCCCCCCCCCCCC(CCCCCCCCCCCCCCCCCC)CCCCC(CCCCCCCCCCCCCCCCCC)CCCCCCCCCCCCCCCCCC, the activity coefficient came to 0.378 ± 0.034.

With `CCC(C)C(C)CC` (configuration not stated) [3,4-dimethylhexane] + CCCCCCCCCCCCCCCCCCC(CCCCCCCCCCCCCCCCCC)CCCCC(CCCCCCCCCCCCCCCCCC)CCCCCCCCCCCCCCCCCC, the activity coefficient came to 0.362 ± 0.035.

As to `CCC#CCC` [3-hexyne] + CCCCCCCCCCCCCCCCCCC(CCCCCCCCCCCCCCCCCC)CCCCC(CCCCCCCCCCCCCCCCCC)CCCCCCCCCCCCCCCCCC, the activity coefficient was 0.417 ± 0.034.

In the case of `CCCC#CCCC` [4-octyne] + CCCCCCCCCCCCCCCCCCC(CCCCCCCCCCCCCCCCCC)CCCCC(CCCCCCCCCCCCCCCCCC)CCCCCCCCCCCCCCCCCC, the activity coefficient is 0.421 ± 0.034.

As to `C1C2CC3CC1CC(C2)C3` [adamantane] + CCCCCCCCCCCCCCCCCCC(CCCCCCCCCCCCCCCCCC)CCCCC(CCCCCCCCCCCCCCCCCC)CCCCCCCCCCCCCCCCCC, the activity coefficient amounted to 0.342 ± 0.035.

Staying with this series, now noted: 433.15 K; 101 kPa; Liquid; Chromatography; x1 = 0.
For `C1=CCCC=C1` [1,3-cyclohexadiene] + CCCCCCCCCCCCCCCCCCC(CCCCCCCCCCCCCCCCCC)CCCCC(CCCCCCCCCCCCCCCCCC)CCCCCCCCCCCCCCCCCC, the activity coefficient was 0.252 ± 0.036.

On to `C1=CCC=CC1` [1,4-cyclohexadiene] + CCCCCCCCCCCCCCCCCCC(CCCCCCCCCCCCCCCCCC)CCCCC(CCCCCCCCCCCCCCCCCC)CCCCCCCCCCCCCCCCCC, for which the activity coefficient worked out at 0.238 ± 0.036.

As for `C=CCCCCCCCC` [1-decene] + CCCCCCCCCCCCCCCCCCC(CCCCCCCCCCCCCCCCCC)CCCCC(CCCCCCCCCCCCCCCCCC)CCCCCCCCCCCCCCCCCC, the activity coefficient amounted to 0.418 ± 0.034.

On to `C#CCCCCCCCC` [1-decyne] + CCCCCCCCCCCCCCCCCCC(CCCCCCCCCCCCCCCCCC)CCCCC(CCCCCCCCCCCCCCCCCC)CCCCCCCCCCCCCCCCCC, for which the activity coefficient came out at 0.446 ± 0.033.

As to `C=CCCCCCCCCCC` [1-dodecene] + CCCCCCCCCCCCCCCCCCC(CCCCCCCCCCCCCCCCCC)CCCCC(CCCCCCCCCCCCCCCCCC)CCCCCCCCCCCCCCCCCC, the activity coefficient was 0.455 ± 0.033.

As for `C=CCCCCC` [1-heptene] + CCCCCCCCCCCCCCCCCCC(CCCCCCCCCCCCCCCCCC)CCCCC(CCCCCCCCCCCCCCCCCC)CCCCCCCCCCCCCCCCCC, the activity coefficient is 0.359 ± 0.035.

Turning to `C#CCCCCC` [1-heptyne] + CCCCCCCCCCCCCCCCCCC(CCCCCCCCCCCCCCCCCC)CCCCC(CCCCCCCCCCCCCCCCCC)CCCCCCCCCCCCCCCCCC, the activity coefficient came out at 0.398 ± 0.034.

Consider `C#CCCCC` [1-hexyne] + CCCCCCCCCCCCCCCCCCC(CCCCCCCCCCCCCCCCCC)CCCCC(CCCCCCCCCCCCCCCCCC)CCCCCCCCCCCCCCCCCC, for which the activity coefficient stood at 0.36 ± 0.035.

As for `C=CCCCCCCC` [1-nonene] + CCCCCCCCCCCCCCCCCCC(CCCCCCCCCCCCCCCCCC)CCCCC(CCCCCCCCCCCCCCCCCC)CCCCCCCCCCCCCCCCCC, the activity coefficient was determined as 0.398 ± 0.034.

Turning to `C#CCCCCCCC` [1-nonyne] + CCCCCCCCCCCCCCCCCCC(CCCCCCCCCCCCCCCCCC)CCCCC(CCCCCCCCCCCCCCCCCC)CCCCCCCCCCCCCCCCCC, the activity coefficient came to 0.425 ± 0.034.

As for `C#CCCCCCC` [1-octyne] + CCCCCCCCCCCCCCCCCCC(CCCCCCCCCCCCCCCCCC)CCCCC(CCCCCCCCCCCCCCCCCC)CCCCCCCCCCCCCCCCCC, the activity coefficient is 0.411 ± 0.034.

For `C=CCCCCCCCCCCCC` [1-tetradecene] + CCCCCCCCCCCCCCCCCCC(CCCCCCCCCCCCCCCCCC)CCCCC(CCCCCCCCCCCCCCCCCC)CCCCCCCCCCCCCCCCCC, the activity coefficient is 0.475 ± 0.033.

As for `C=CCCCCCCCCCCC` [1-tridecene] + CCCCCCCCCCCCCCCCCCC(CCCCCCCCCCCCCCCCCC)CCCCC(CCCCCCCCCCCCCCCCCC)CCCCCCCCCCCCCCCCCC, the activity coefficient was 0.468 ± 0.033.

As for `C=CCCCCCCCCC` [1-undecene] + CCCCCCCCCCCCCCCCCCC(CCCCCCCCCCCCCCCCCC)CCCCC(CCCCCCCCCCCCCCCCCC)CCCCCCCCCCCCCCCCCC, the activity coefficient is 0.436 ± 0.033.

As for `C1CCC2CCCC2C1` (configuration not stated) [1H-indene, octahydro-] + CCCCCCCCCCCCCCCCCCC(CCCCCCCCCCCCCCCCCC)CCCCC(CCCCCCCCCCCCCCCCCC)CCCCCCCCCCCCCCCCCC, the activity coefficient stood at 0.27 ± 0.036.

For the compound `CC(C)C(C)(C)C` [2,2,3-trimethylbutane] + CCCCCCCCCCCCCCCCCCC(CCCCCCCCCCCCCCCCCC)CCCCC(CCCCCCCCCCCCCCCCCC)CCCCCCCCCCCCCCCCCC, the activity coefficient amounted to 0.355 ± 0.035.

On to `CC(C)CC(C)(C)C` [2,2,4-trimethylpentane] + CCCCCCCCCCCCCCCCCCC(CCCCCCCCCCCCCCCCCC)CCCCC(CCCCCCCCCCCCCCCCCC)CCCCCCCCCCCCCCCCCC, for which the activity coefficient was 0.406 ± 0.034.

For the compound `CC(C)C(C)C(C)C` [2,3,4-trimethylpentane] + CCCCCCCCCCCCCCCCCCC(CCCCCCCCCCCCCCCCCC)CCCCC(CCCCCCCCCCCCCCCCCC)CCCCCCCCCCCCCCCCCC, the activity coefficient was determined as 0.362 ± 0.035.

`CCC(C)CC(C)C` (configuration not stated) [2,4-dimethylhexane] + CCCCCCCCCCCCCCCCCCC(CCCCCCCCCCCCCCCCCC)CCCCC(CCCCCCCCCCCCCCCCCC)CCCCCCCCCCCCCCCCCC: the activity coefficient was found to be 0.405 ± 0.034.

With `CC(C)CC(C)C` [2,4-dimethylpentane] + CCCCCCCCCCCCCCCCCCC(CCCCCCCCCCCCCCCCCC)CCCCC(CCCCCCCCCCCCCCCCCC)CCCCCCCCCCCCCCCCCC, the activity coefficient was determined as 0.4 ± 0.034.

For the compound `CC#CCCC` [2-hexyne] + CCCCCCCCCCCCCCCCCCC(CCCCCCCCCCCCCCCCCC)CCCCC(CCCCCCCCCCCCCCCCCC)CCCCCCCCCCCCCCCCCC, the activity coefficient was 0.38 ± 0.034.

As to `CCC(C)C(C)CC` (configuration not stated) [3,4-dimethylhexane] + CCCCCCCCCCCCCCCCCCC(CCCCCCCCCCCCCCCCCC)CCCCC(CCCCCCCCCCCCCCCCCC)CCCCCCCCCCCCCCCCCC, the activity coefficient turned out to be 0.366 ± 0.035.

Take `CCC#CCC` [3-hexyne] + CCCCCCCCCCCCCCCCCCC(CCCCCCCCCCCCCCCCCC)CCCCC(CCCCCCCCCCCCCCCCCC)CCCCCCCCCCCCCCCCCC: the activity coefficient is 0.419 ± 0.034.

`CCCC#CCCC` [4-octyne] + CCCCCCCCCCCCCCCCCCC(CCCCCCCCCCCCCCCCCC)CCCCC(CCCCCCCCCCCCCCCCCC)CCCCCCCCCCCCCCCCCC: the activity coefficient amounted to 0.416 ± 0.034.

Regarding `C1C2CC3CC1CC(C2)C3` [adamantane] + CCCCCCCCCCCCCCCCCCC(CCCCCCCCCCCCCCCCCC)CCCCC(CCCCCCCCCCCCCCCCCC)CCCCCCCCCCCCCCCCCC, the activity coefficient is 0.343 ± 0.035.
